Results on 66 molecules are retold here after US9499502B2, “5-substituted iminothiazines and their mono- and dioxides as BACE inhibitors, compositions, and their use” (Merck Sharp & Dohme Corp., priority 2011, dated 2016).

Molecules are shown by their SMILES.

A word on the Ki: it is the dissociation constant of the complex between target and ligand, obtained from inhibition or displacement.

Sequence of soluble human BACE1 catalytic domain (P56817 75-416): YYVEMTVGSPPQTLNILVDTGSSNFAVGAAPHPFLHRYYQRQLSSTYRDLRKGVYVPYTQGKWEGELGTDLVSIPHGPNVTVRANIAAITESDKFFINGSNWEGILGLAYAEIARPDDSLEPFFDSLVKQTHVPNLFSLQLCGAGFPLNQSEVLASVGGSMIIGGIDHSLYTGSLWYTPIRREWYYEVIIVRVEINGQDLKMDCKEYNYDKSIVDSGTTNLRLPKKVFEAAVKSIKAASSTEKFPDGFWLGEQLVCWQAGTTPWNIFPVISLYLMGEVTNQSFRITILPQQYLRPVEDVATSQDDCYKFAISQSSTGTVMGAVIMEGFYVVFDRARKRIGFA

One experiment concerns the target soluble human BACE1 catalytic domain (Homo sapiens (Human), UniProt P56817). Briefly: BACE1 HTRF FRET Assay. The settings on record: BACE1 Ki (nM), Ki calculated from IC50 using the Cheng-Prusoff equation.
Regarding `CC1(C)C(=N)N[C@](C)(c2cc(NC(=O)c3ccc(F)cn3)ccc2F)CS1(=O)=O` [Example 1], the Ki is under 5 nM.

Staying with this experiment, now noted: at 10 μM.
Take `Cc1nc2cc(CC3(C)C(=N)N[C@](C)(c4cc(F)ccc4F)CS3(=O)=O)ccc2s1` (stereo partly shown) [Example 32-b]: the “BACE1 inhibition, % Inh. at 10 μM” value turned out to be 7% Inh at 10 μM.

Still in this experiment, the particulars now being: read-out: BACE1 % Inh. at 10 μM, at 10 μM.
Regarding `CN(C)CC(=O)Nc1ccc(F)c([C@]2(C)CS(=O)(=O)C(C)(C)C(=N)N2)c1` [Example 9ay], the inhibition at 10 µM is 23%.

With `CC1(C)C(=N)N[C@](C)(c2cc(NC(=O)C3CCOCC3)cc(F)c2F)CS1(=O)=O` [Example 9bb], the inhibition at 10 µM came out at 48%.

Still in this experiment, the particulars now being: read-out: BACE1 Ki.
In the case of `COc1cccc(C[C@@]2(C)C(=N)N[C@](C)(c3ccc(F)cc3F)CS2(=O)=O)c1` [Example 32i-a], the Ki came to 3120 nM. Same read-out and setting: under `COc1cccc(C[C@]2(C)C(=N)N[C@](C)(c3ccc(F)cc3F)CS2(=O)=O)c1` [Example 32i-b] stands 3820 nM.

Regarding `CC1(C)C(=N)N[C@](C)(c2sc(-c3ccc4ncnn4c3)cc2Cl)CS1(=O)=O` [Example 27q], the Ki is 297 nM. On the same count and under the same terms, under `COCC1(COC)C(=N)N[C@](C)(c2sc(-c3cc4cccc(OC)c4[nH]3)cc2Cl)CS1(=O)=O` [Example 27bv] stands 79 nM; under `CC1(C)C(=N)N[C@](C)(c2cc(-c3cncc(-c4ncco4)c3)cs2)CS1(=O)=O` [Example 27ak], 128 nM; under `COCC1(COC)C(=N)N[C@](C)(c2sc(-c3cccc(C#N)c3)cc2Cl)CS1(=O)=O` [Example 27bt], 135 nM.

`CC1(C)C(=N)N[C@](C)(c2cc(-c3cncc(-c4cnco4)c3)cs2)CS1(=O)=O` [Example 27al]: the Ki stood at 93.8 nM. Regarding `CC1(C)C(=N)N[C@](C)(c2nc3ccc(-c4cccnc4)cc3s2)CS1(=O)=O` [Example 29a], the inhibitory constant (Ki) was 3380 nM. The same measure, in the same setting: the figure for `CC1(C)C(=N)N[C@](C)(c2cc(-c3cccc(-c4ccno4)c3)cs2)CS1(=O)=O` [Example 27aj] is 113 nM; for `COc1cncc(-c2cc(F)c([C@]3(C)CS(=O)(=O)C(C)(C)C(=N)N3)s2)n1` [Example 27au] it is 943 nM. With `COc1cccc([C@@]2(C)C(=N)N[C@](C)(c3ccc(F)cc3F)CS2(=O)=O)c1` [Example 32f-a], the Ki is 1210 nM. With `C[C@@]1(c2ccc(F)cc2F)CS(=O)(=O)[C@@](C)(c2cccc(OCc3ccccc3)c2)C(=N)N1` [Example 34a], the Ki was 2170 nM. Same read-out and setting: under `C[C@@]1(c2cccc(Br)c2)C(=N)N[C@](C)(c2ccc(F)cc2F)CS1(=O)=O` [Example 32g-b] stands 8830 nM; under `CC1(C)C(=N)N[C@](C)(c2sc(-c3cnn4c3CCC4)cc2Cl)CS1(=O)=O` [Example 27m], 5340 nM; under `CC1(C)C(=N)N[C@](C)(c2sc(-c3cccc(C#N)c3F)cc2Cl)CS1(=O)=O` [Example 27z], 400 nM. Still for that read-out and setting: the figure for `C[C@@]1(c2ccccn2)C(=N)N[C@](C)(c2sc(-c3cncc(C#N)c3)cc2F)CS1(=O)=O` [Example 27bq-b] is 2500 nM. Still for that read-out and setting: under `C[C@@]1(c2sc(-c3cccc(C#N)c3)cc2F)CS(=O)(=O)[C@](C)(CC(F)(F)F)C(=N)N1` [Example 27bj-b] stands 829 nM; under `CC1(C)C(=N)N[C@](C)(c2cc(-c3cccc(-c4nnco4)c3)cs2)CS1(=O)=O` [Example 27ah], 41.5 nM. `CC1(C)C(=N)N[C@](C)(c2sc(-c3cccc(OC(F)(F)F)c3)cc2Cl)CS1(=O)=O` [Example 27h]: the Ki came out at 70.9 nM. Still for that read-out and setting: the figure for `CC1(C)C(=N)N[C@](C)(c2cc(-c3cc(F)cc(-c4cnco4)c3)cs2)CS1(=O)=O` [Example 27am] is 80.6 nM; for `CC1(C)C(=N)N[C@](C)(c2sc(-c3nnc(-c4ccc(C#N)cc4)o3)cc2F)CS1(=O)=O` [Example 27bi] it is 48.9 nM.

Regarding `COc1cncc(-c2cc(F)c([C@]3(C)CS(=O)(=O)C(C)(CC(F)(F)F)C(=N)N3)s2)c1` (stereo partly shown) [Example 27bn-a], the Ki worked out at 8020 nM. On the same count and under the same terms, the figure for `COc1cncc(-c2cc(Cl)c([C@]3(C)CS(=O)(=O)C(C)(C)C(=N)N3)s2)n1` [Example 27w] is 1290 nM.

The same experiment, now with this note: read-out: BACE1 Ki; Ki calculated from IC50 using the Cheng-Prusoff equation.
Regarding `C[C@@]1(c2cc(NC(=O)c3ccc(C(F)(F)F)cn3)ccc2F)CS(=O)(=O)[C@@](C)(C2CCC2)C(=N)N1` [Example 9dz-a], the Ki is 3.4 nM. Still for that read-out and setting: under `CC1(C(=O)Nc2cc(F)c(F)c([C@]3(C)CS(=O)(=O)C(C)(C)C(=N)N3)c2)CC1` [Example 9az] stands 708 nM; under `CC1(C)C(=N)N[C@](C)(c2cc(NC(=O)c3ccc(Cl)cn3)cc(Cl)c2F)CS1(=O)=O` [Example 9t], 3.3 nM. On the same count and under the same terms, the figure for `CC1(C)C(=N)N[C@](C)(c2sc(C(=O)NCc3cnn4ccccc34)cc2Cl)CS1(=O)=O` [Example 22s] is 128 nM; for `CC1(C)C(=N)N[C@](C)(c2cc(NC(=O)C3CCC3(F)F)cc(F)c2F)CS1(=O)=O` (stereo partly shown) [Example 9br] it is 610 nM; for `CC1(C)C(=N)N[C@](C)(c2cc(NC(=O)[C@H]3CCCO3)cc(F)c2F)CS1(=O)=O` [Example 9bm] it is 218 nM. The same measure, in the same setting: the figure for `CC1(C)C(=N)N[C@](C)(c2cc(NC(=O)Cc3ncccn3)cc(F)c2F)CS1(=O)=O` [Example 9bx] is 7070 nM; for `COc1cnc(C(=O)Nc2ccc(F)c([C@]3(C)CS(=O)(=O)[C@@](C)(c4ccc(F)cc4)C(=N)N3)c2)cn1` [Example 9dg-a] it is 4.5 nM. Take `CC1(C)C(=N)N[C@](C)(c2cc(NC(=O)C3CCOCC3)ccc2F)CS1(=O)=O` [Example 9av]: the Ki is 8580 nM. On the same count and under the same terms, under `CC1(C)C(=N)N[C@](C)(c2cc(NC(=O)c3ccc(F)cn3)ccc2F)CS1(=O)=O` [Example 1] stands 1.2 nM. Consider `CC1(C)C(=N)N[C@](C)(c2cc(NC(=O)c3ccc(F)cn3)cc(F)c2F)CS1(=O)=O` [Example 9k], for which the Ki is 9.7 nM. The same measure, in the same setting: the figure for `CC1(C)C(=N)N[C@](C)(c2sc(C(=O)NCc3ccc(C(F)(F)F)cn3)cc2Cl)CS1(=O)=O` [Example 22p] is 1800 nM; for `CC1(C)C(=N)N[C@](C)(c2cc(NC(=O)c3ccc(C#N)cn3)ccc2F)CS1(=O)=O` [Example 9b] it is under 0.5 nM; for `CC1(C)C(=N)N[C@](C)(c2cc(NC(=O)c3cnc(C(F)F)cn3)cc(F)c2F)CS1(=O)=O` [Example 9r] it is 5.3 nM. Consider `CC1(C)C(=N)N[C@](C)(c2cc(NC(=O)c3ncc(Cl)cc3Cl)ccc2F)CS1(=O)=O` [Example 9], for which the Ki was under 0.5 nM.

Take `CC1(C)C(=N)N[C@](C)(c2sc(C(=O)NCc3ccncn3)cc2Cl)CS1(=O)=O` [Example 22t]: the Ki was 3130 nM.

As to `C[C@]1(CC2CC2)C(=N)N[C@](C)(c2cc(NC(=O)c3ccc(C(F)(F)F)cn3)ccc2F)CS1(=O)=O` [Example 9dl-a], the inhibition constant (Ki) is 4.4 nM.

Regarding `C[C@@]1(c2cc(NC(=O)c3ccc(F)cn3)ccc2F)CS(=O)(=O)[C@@](C)(c2cccc(F)c2)C(=N)N1` [Example 9da-a], the Ki was 3.6 nM. Same read-out and setting: under `CC1(C)C(=N)N[C@](C)(c2cc(NC(=O)c3ccc(F)cc3F)ccc2F)CS1(=O)=O` [Example 9f] stands 11 nM. Same read-out and setting: under `C[C@]1(CC2CC2)C(=N)N[C@](C)(c2cc(NC(=O)c3ccc(F)cn3)ccc2F)CS1(=O)=O` [Example 9dh-a] stands 7.5 nM; under `COc1cnc(C(=O)Nc2ccc(F)c([C@]3(C)CS(=O)(=O)[C@@](C)(C4CCC4)C(=N)N3)c2)cn1` [Example 9dy-a], 7.5 nM; under `CC1(C)C(=N)N[C@](C)(c2cc(NC(=O)c3ccc(Cl)cc3)ccc2F)CS1(=O)=O` [Example 8], 19 nM.

In the case of `COc1cnc(C(=O)Nc2ccc(F)c([C@]3(C)CS(=O)(=O)[C@@](C)(C4CC4)C(=N)N3)c2)cn1` [Example 9cq-a], the Ki is 13.3 nM. Consider `CC1(C)C(=N)N[C@](C)(c2sc(C(=O)NCc3cccc(F)c3)cc2Cl)CS1(=O)=O` [Example 22i], for which the Ki is 1160 nM.

On to `CC1(C)C(=N)N[C@](C)(c2cc(NC(=O)C3CCC3)ccc2F)CS1(=O)=O` [Example 9aq], for which the Ki is 476 nM. Still for that read-out and setting: under `CC1(C)C(=N)N[C@](C)(c2sc(-c3cccc(-c4nnco4)c3)cc2Cl)CS1(=O)=O` [Example 27b] stands 8.2 nM; under `COc1cnc(C(=O)Nc2cc(Cl)c(F)c([C@]3(C)CS(=O)(=O)C(C)(C)C(=N)N3)c2)cn1` [Example 9w], 4.4 nM. Still for that read-out and setting: the figure for `CC1(C)C(=N)N[C@](C)(c2sc(C(=O)NCc3ccsn3)cc2Cl)CS1(=O)=O` [Example 22v] is 292 nM.

The same experiment, now with this note: read-out: BACE1 inhibition, % Inh. at 10 μM, at 10 μM.
As to `CC1(c2nc(C#Cc3ccc(F)cc3)ccc2F)CS(=O)(=O)C(C)(C)C(=N)N1` (stereo not shown) [Example 31a], the inhibition at 10 µM is 41%. Same read-out and setting: the figure for `CC1(C)C(=N)N[C@](C)(c2cc([N+](=O)[O-])ccc2F)CS1(=O)=O` [Example 2-1] is 45%. The same measure, in the same setting: the figure for `C[C@@]1(c2cccc(O)c2)C(=N)N[C@](C)(c2cc(F)ccc2F)CS1(=O)=O` [Example 34c-b] is 48%.

The same experiment, now with this note: read-out: BACE1 inhibition, Ki.
Consider `CC1(C)C(=N)N[C@](C)(c2cc(N)cc(Cl)c2F)CS1(=O)=O` [Example 2A-7], for which the Ki worked out at 3100 nM. On the same count and under the same terms, the figure for `C[C@@]1(c2cc(N)ccc2F)CS(=O)(=O)[C@@](C)(c2ccccn2)C(=N)N1` [Entry 76] is 6600 nM.

As for `C[C@]1(CC(F)(F)F)C(=N)N[C@](C)(c2sc(Br)cc2F)CS1(=O)=O` [Example 6F-3a], the Ki amounted to 500 nM. On the same count and under the same terms, the figure for `C[C@@]1(c2cc([N+](=O)[O-])ccc2F)CS(=O)(=O)[C@@](C)(c2cccc(C(F)(F)F)c2)C(=N)N1` [Entry 66] is 600 nM; for `COCC1(COC)C(=N)N[C@](C)(c2sc(Br)cc2Cl)CS1(=O)=O` [Entry 89] it is 1900 nM. On the same count and under the same terms, the figure for `C[C@@]1(c2cc(F)ccc2F)CS(=O)(=O)[C@@](C)(c2cccc(OCc3ccccc3)c2)C(=N)N1` [Example 34d-a] is 2900 nM; for `CC1(C)C(=N)N[C@](C)(c2c(F)cccc2F)CS1(=O)=O` [Entry 11] it is 1300 nM; for `C[C@@]1(c2cc(N)ccc2F)CS(=O)(=O)[C@@](C)(c2cc(C(F)(F)F)ccn2)C(=N)N1` [Entry 72] it is 1400 nM. Same read-out and setting: the figure for `C[C@]1(CC2CC2)C(=N)N[C@](C)(c2cc(N)ccc2F)CS1(=O)=O` [Entry 47] is 1800 nM.
